# Data from ChEMBL document CHEMBL1201862, “PubChem BioAssay data set” (2004).
# Active and inactive are the calls of the source.
# Legend:
# Cytochrome P450 3A4 = Cytochrome P450 3A4 (Homo sapiens, UniProt P08684);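 note: CYP3A4 tested as one member of a cytochrome P450 panel screen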
# Cytochrome P450 2C9 = Cytochrome P450 2C9 (Homo sapiens, UniProt P11712)
# Cytochrome P450 1A2 = target: T1, Cytochrome P450 1A2 (Homo sapiens, UniProt P05177);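 note: PubChem cytochrome P450 panel assay, CYP1A2 panel member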
# T1 sequence (P05177 whole entry): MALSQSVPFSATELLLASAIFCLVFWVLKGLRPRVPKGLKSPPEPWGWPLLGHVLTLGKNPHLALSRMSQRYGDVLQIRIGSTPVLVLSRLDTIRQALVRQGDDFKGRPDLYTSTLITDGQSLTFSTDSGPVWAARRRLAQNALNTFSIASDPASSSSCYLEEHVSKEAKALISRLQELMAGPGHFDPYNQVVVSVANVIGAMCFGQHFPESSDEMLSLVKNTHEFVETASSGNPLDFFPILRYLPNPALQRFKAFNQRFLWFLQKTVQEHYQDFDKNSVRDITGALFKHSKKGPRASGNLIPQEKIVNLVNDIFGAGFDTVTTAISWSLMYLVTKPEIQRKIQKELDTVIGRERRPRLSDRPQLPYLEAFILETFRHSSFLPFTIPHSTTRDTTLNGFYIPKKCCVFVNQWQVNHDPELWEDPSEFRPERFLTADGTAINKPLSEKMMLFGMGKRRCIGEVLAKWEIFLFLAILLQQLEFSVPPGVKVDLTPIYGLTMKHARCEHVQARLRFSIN
# [1] = target: T2, Heat shock factor protein 1 (Mus musculus, UniProt P38532); assay: enhancement of HSF1-driven luciferase signal – cell-based, NIH3T3, luminescence, dose retest, confirmation (AID 435004); type: functional;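 note: stress induced by proteasome inhibitor MG132 added 30 min after compound; luciferase reporter driven by HSF1 response element in NIH3T3 cells; actives raise luminescence as potentiators of the MG132 stress response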
# T2 sequence (P38532 whole entry): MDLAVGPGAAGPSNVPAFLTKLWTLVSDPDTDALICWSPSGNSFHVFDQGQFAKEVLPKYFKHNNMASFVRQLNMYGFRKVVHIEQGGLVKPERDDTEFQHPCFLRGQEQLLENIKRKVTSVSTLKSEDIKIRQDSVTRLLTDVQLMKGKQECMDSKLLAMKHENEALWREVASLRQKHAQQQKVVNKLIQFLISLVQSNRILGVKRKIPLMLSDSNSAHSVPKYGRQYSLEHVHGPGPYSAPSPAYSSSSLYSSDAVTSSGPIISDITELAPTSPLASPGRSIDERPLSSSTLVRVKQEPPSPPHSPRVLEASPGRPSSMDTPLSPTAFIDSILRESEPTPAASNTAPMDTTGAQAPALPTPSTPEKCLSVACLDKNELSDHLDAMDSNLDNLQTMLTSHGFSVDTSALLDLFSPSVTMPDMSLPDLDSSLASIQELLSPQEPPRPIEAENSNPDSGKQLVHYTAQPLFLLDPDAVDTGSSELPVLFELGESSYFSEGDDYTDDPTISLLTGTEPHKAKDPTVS
# [2] = target: T2, Heat shock factor protein 1; assay: decrease of HSF1-responsive luciferase luminescence – cell-based, NIH3T3, dose retest, confirmation (AID 2382); type: functional;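 note: NIH3T3 fibroblasts with HSF1-driven luciferase reporter stressed by proteasome inhibitor MG132; luminescence from HSF1-driven luciferase expression after 8 hours of MG132 stress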
# Cytochrome P450 2C19 = Cytochrome P450 2C19 (Homo sapiens, UniProt P33261); assay: Cytochrome panel assay with activity outcomes. Panel member name: p450-cyp2c19 Compounds with AC50 equal or less than 10 uM are considered active; type: functional; settings: read-out: AC50
# [3] = Luminescence Cell-Based Dose Retest to Confirm Inhibitors of Cancer Stem Cells. [Related pubchem assays (depositor defined):AID2717, AID2721]; type: functional, Homo sapiens; settings: Homo sapiens
# Protein skinhead-1 = target: T3, Protein skinhead-1 (Caenorhabditis elegans, UniProt P34707); type: functional
# T3 sequence (P34707 whole entry): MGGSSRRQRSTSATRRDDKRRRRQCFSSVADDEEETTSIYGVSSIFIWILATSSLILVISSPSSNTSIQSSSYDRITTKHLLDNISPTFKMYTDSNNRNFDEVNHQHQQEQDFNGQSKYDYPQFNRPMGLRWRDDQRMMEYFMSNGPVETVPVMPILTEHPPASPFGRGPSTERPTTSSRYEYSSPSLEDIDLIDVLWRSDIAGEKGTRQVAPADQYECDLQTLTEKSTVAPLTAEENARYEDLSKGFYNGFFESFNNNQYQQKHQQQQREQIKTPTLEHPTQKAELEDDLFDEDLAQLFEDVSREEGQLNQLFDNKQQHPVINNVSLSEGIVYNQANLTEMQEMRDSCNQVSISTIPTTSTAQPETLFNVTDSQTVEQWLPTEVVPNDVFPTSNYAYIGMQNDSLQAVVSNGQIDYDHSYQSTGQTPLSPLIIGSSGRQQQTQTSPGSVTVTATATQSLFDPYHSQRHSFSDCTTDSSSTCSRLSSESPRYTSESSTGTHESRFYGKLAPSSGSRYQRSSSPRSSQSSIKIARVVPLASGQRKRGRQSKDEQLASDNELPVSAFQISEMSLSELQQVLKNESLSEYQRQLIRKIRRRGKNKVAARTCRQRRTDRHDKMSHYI
# [4] = NIH3T3 cell viability loss – ATP luminescence, mouse fibroblasts, counter-screen, dose response (AID 2010); type: functional, cell-based;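 note: cells exposed to compound for about 90 hours before reading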
# [5] = Trypanosoma cruzi growth suppression in host cells – NIH3T3 host cells, beta-gal luminescence, confirmation (AID 2044); type: functional, cell-based;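 note: intracellular parasites grown in NIH/3T3 mouse fibroblasts as host cells; luminescent beta-galactosidase reporter signal from transgenic T. cruzi replicating inside host cells; inhibitors lower the luminescence signal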
# [6] = viability of uninfected HEp-2 cells – cell-based, HTS, cytotoxicity control for RSV inhibitor project, dose response (AID 2410); type: functional; settings: human respiratory syncytial virus
# Cytochrome P450 3A4, sequence (P08684 whole entry): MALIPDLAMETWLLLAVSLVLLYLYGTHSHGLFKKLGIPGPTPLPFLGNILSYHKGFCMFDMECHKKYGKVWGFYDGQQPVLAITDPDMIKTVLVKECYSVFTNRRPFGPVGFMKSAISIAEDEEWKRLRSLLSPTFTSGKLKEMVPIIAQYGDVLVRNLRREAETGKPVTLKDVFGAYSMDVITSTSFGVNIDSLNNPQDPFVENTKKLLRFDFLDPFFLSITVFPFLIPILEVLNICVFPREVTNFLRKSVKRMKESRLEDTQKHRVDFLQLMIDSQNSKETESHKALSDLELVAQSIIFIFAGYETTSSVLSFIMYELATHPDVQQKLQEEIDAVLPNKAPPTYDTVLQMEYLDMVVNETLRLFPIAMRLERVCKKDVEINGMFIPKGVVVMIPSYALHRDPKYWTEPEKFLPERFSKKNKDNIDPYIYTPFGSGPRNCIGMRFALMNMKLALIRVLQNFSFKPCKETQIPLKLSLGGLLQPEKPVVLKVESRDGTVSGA
# Cytochrome P450 2C19, sequence (P33261 whole entry): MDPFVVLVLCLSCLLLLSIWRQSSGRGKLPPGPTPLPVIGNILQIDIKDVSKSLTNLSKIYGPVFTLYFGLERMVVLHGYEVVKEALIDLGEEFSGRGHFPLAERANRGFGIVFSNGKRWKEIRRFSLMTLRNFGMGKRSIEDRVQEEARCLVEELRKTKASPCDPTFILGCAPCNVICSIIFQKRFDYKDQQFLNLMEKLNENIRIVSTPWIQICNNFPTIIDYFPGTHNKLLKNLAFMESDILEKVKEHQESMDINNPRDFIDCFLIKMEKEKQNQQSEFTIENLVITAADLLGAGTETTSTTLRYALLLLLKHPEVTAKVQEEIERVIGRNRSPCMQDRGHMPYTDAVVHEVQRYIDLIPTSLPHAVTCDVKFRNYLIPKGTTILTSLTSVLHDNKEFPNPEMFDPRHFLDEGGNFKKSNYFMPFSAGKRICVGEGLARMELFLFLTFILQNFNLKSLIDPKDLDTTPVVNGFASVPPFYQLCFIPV
# Cytochrome P450 2C9, sequence (P11712 whole entry): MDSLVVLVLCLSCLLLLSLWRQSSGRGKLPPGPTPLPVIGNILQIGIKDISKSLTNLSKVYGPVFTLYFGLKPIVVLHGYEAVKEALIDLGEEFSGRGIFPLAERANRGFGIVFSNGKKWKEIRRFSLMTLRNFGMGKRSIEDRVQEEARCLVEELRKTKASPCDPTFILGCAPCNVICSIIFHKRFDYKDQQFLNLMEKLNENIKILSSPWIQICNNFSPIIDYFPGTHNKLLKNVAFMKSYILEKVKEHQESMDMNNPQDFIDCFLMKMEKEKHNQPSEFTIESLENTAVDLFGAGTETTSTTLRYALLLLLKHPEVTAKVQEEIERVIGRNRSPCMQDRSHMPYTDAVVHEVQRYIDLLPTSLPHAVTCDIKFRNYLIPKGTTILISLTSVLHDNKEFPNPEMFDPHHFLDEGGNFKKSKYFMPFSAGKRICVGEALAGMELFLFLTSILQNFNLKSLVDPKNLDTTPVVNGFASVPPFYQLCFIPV
smiles,measurement,setting,value
O=C(CCn1nc(-c2ccc(Cl)cc2)ccc1=O)N1CCOCC1,AC50,Cytochrome P450 3A4,25.1 µM (inconclusive)
same,AC50,Cytochrome P450 2C9,10 µM (inconclusive)
COC(=O)[C@@H]1[C@@H]2C[C@H]3c4[nH]c5cc(OC)ccc5c4CCN3C[C@@H]2C[C@H](OC(=O)/C=C\c2cc(OC)c(OC)c(OC)c2)[C@H]1OC,AC50,Cytochrome P450 1A2,3.16 µM (inconclusive)
O=C(NCCc1cccc(Cl)c1)c1cc2ccccc2oc1=O,EC50,[1],> 260 µM (inactive)
CSCC[C@H](NC(=O)N1CCn2c1nc1ccccc12)C(=O)NCc1ccc(F)cc1,EC50,[1],> 260 µM (inactive)
COc1ccccc1CNC(=O)C(C)NS(=O)(=O)c1ccc(Br)cc1 (stereo not drawn),EC50,[2],> 195 µM (not active)
CC[C@H]1C2=C3C(CC[C@H]4C(OCc5ccc(F)cc5C(F)(F)F)OC[C@](C)([C@@H]34)N(C(=O)OC(C)(C)C)C2)C(COC(C)=O)C1COC(C)=O (stereo partly drawn),AC50,Cytochrome P450 3A4,2.51 µM (inconclusive)
same,AC50,Cytochrome P450 2C9,31.6 µM (inconclusive)
same,AC50,Cytochrome P450 2C19,15.8 µM (inconclusive)
CC(C)(C)NC(=O)COC(=O)c1cncc(Br)c1,AC50,Cytochrome P450 1A2,20 µM (inconclusive)
same,AC50,Cytochrome P450 3A4,15.8 µM (inconclusive)
S=C(Nc1cccc(Cl)c1)N(CCCN1CCCC1)Cc1cccn1Cc1ccc(Cl)cc1,AC50,[3],6.16 µM (active)
same,EC50,[1],> 120 µM (inactive)
Cc1oc2ccc(OCc3c(F)cccc3Cl)cc2c1C(=O)O,EC50,[2],> 195 µM (not active)
C[C@@H](CN)CC(=O)O,AC50,Cytochrome P450 1A2,39.8 µM (inconclusive)
COc1cc(C(=O)Nc2nccs2)cc(OC)c1OC,IC50,Protein skinhead-1,> 100 µM (inactive)
C/C(Cl)=C/Cc1c(C)nc2ccc(C)cc2c1O,EC50,[4],> 30 µM (not active)
same,EC50,[1],> 260 µM (inactive)
same,EC50,[5],0.324 µM (active)
N[C@@H](Cc1cccnn1)C(=O)O,AC50,Cytochrome P450 1A2,3.16 µM (inconclusive)
O[C@H](CN1CCN(c2cccc(Cl)c2)CC1)C(c1ccccc1)c1ccccc1,AC50,Cytochrome P450 1A2,31.6 µM (inconclusive)
Cc1ccc(NC(=O)COc2ccc(Br)cc2CO)cc1S(=O)(=O)N1CCOCC1,IC50,Protein skinhead-1,> 100 µM (inactive)
O=C1c2ccccc2C(O)N1c1ccccc1 (stereo not drawn),EC50,[2],> 195 µM (not active)
C=CCn1c(S)nnc1-c1cccc2ccccc12,EC50,[2],> 195 µM (not active)
O=C(NCc1ccco1)c1ccccc1-c1ccc(C(F)(F)F)cc1,EC50,[2],> 195 µM (not active)
COc1ccc(-c2cc(-c3ccccc3)[nH]n2)c(O)c1,IC50,Protein skinhead-1,> 100 µM (inactive)
COc1ccc(CNCC(O)COc2ccc(C(C)(C)c3ccccc3)cc2)cc1 (stereo not drawn),AC50,[3],3.38 µM (active)
same,EC50,[1],> 260 µM (inactive)
O=C(Cn1cc([N+](=O)[O-])cn1)NCC1CCCO1 (stereo not drawn),EC50,[2],> 195 µM (not active)
CCOC(=O)C[n+]1c(C)csc1C,EC50,[2],> 195 µM (not active)
O=C(Nc1ccc(-c2cn3ccsc3n2)cc1)C1COc2ccccc2O1 (stereo not drawn),IC50,Protein skinhead-1,> 100 µM (inactive)
CC(C)[C@@]1(NC(=O)[C@@H]2C[C@H]3c4cccc5[nH]cc(c45)C[C@@H]3N(C)C2)O[C@]2(O)[C@H]3CCCN3C(=O)CN2C1=O,AC50,Cytochrome P450 2C9,6.31 µM (inconclusive)
same,AC50,Cytochrome P450 2C19,5.01 µM (inconclusive)
Cn1c(=O)c2cn(-c3ccccc3)cc2n(C)c1=O,AC50,Cytochrome P450 2C9,25.1 µM (inconclusive)
same,AC50,Cytochrome P450 2C19,17.8 µM (inconclusive)
CCCCCCCCCCCCCCCC(=O)C(F)(F)F,AC50,Cytochrome P450 1A2,31.6 µM (inconclusive)
OC(CNC1CCCC1)COc1ccc(-c2ccccc2)cc1 (stereo not drawn),IC50,Protein skinhead-1,45.6 µM (active)
O=C(Cn1nc(-c2ccccc2)ccc1=O)N1CCCCC1,EC50,[2],> 195 µM (not active)
Cc1ccc(N2C(=O)N(CC(=O)NC(N)=O)C(=O)C2C)cc1 (stereo not drawn),EC50,[2],> 195 µM (not active)
COc1ccc(CNC(=O)Oc2ccccc2)cc1Cl,EC50,[1],62.3 µM (active)
CCN(CC)S(=O)(=O)c1cccc(C(=O)N[C@H](C(=O)OCC(=O)NC(=O)NC)C(C)C)c1,AC50,Cytochrome P450 3A4,14.1 µM (inconclusive)
same,AC50,Cytochrome P450 2C9,0.708 µM (inconclusive)
CCCn1nc2cc(C(=O)NCc3ccc(C)cc3)ccc2c1OC,AC50,Cytochrome P450 2C9,20 µM (inconclusive)
same,AC50,Cytochrome P450 2C19,22.4 µM (inconclusive)
CC(C)C(=O)NCCc1nc(-c2ccccc2Cl)no1,IC50,Protein skinhead-1,> 100 µM (inactive)
CC(=O)[C@]1(O)CC[C@@H]2[C@H]3C[C@@H](C)C4=CC(=O)CC[C@@]4(C)[C@H]3[C@@H](O)C[C@]21C,AC50,Cytochrome P450 3A4,3.98 µM (inconclusive)
same,AC50,Cytochrome P450 2C9,7.94 µM (inconclusive)
CCCCOCCCN1CC(=O)N2[C@@H](Cc3c([nH]c4ccccc34)C2(C)C)C1=O,EC50,[1],> 260 µM (inactive)
N#Cc1cnn2c(=O)c3c([nH]c12)CCCC3,AC50,Cytochrome P450 2C9,11.2 µM (inconclusive)
Clc1ccsc1-c1ccc2ccccc2n1,IC50,Protein skinhead-1,16 µM (active)
NC(=O)Cc1ccc2c(c1)[nH]c1ccccc12,EC50,[1],> 260 µM (inactive)
CCOC(=O)N1CCN(C(=O)C2CCN(Cc3ccc(OC)cc3OC)CC2)CC1,EC50,[2],> 195 µM (not active)
N/C(S)=N/CCC[C@@H](N)C(=O)O,AC50,Cytochrome P450 3A4,0.2 µM (inconclusive)
same,AC50,Cytochrome P450 2C9,15.8 µM (inconclusive)
CCOC(=O)CCCN,AC50,Cytochrome P450 1A2,6.31 µM (inconclusive)
Cc1ccc(/C=N/NC(=O)Cn2nccc2C)o1,AC50,Cytochrome P450 1A2,15.8 µM (inconclusive)
same,AC50,Cytochrome P450 2C19,11.2 µM (inconclusive)
CS(=O)(=O)c1ccc(NC(=O)c2ccc3c(c2)S(=O)(=O)N=C2CCCCCN23)cc1,EC50,[2],> 195 µM (not active)
C=CCNC(=S)Nc1sc2c(c1C#N)CCCC2,EC50,[2],> 195 µM (not active)
CCc1n[nH]c2c1C1(CCN(C(=O)OCc3ccccc3)CC1)C(C#N)=C(N)O2,EC50,[1],33.9 µM (active)
CN(C)c1ccc([C@@H]2N([C@H](C#N)c3ccc(N(C)C)cc3)CCCN2[C@@H](C#N)c2ccc(N(C)C)cc2)cc1,AC50,Cytochrome P450 1A2,5.01 µM (inconclusive)
CCOC(=O)c1c[nH]nc1C(F)(F)F,EC50,[1],> 260 µM (inactive)
Cc1nnc(SCCn2c(N3CC(C)CC(C)C3)nc3c2c(=O)n(C)c(=O)n3C)s1 (stereo not drawn),IC50,Protein skinhead-1,> 100 µM (inactive)
COCCNC(=O)Cn1cnc2c1c(=O)n(C)c(=O)n2C,EC50,[1],> 260 µM (inactive)
COc1cccc(C(=O)c2c[nH]c(C(=O)NCc3ccco3)c2)c1,EC50,[2],19.9 µM (active)
c1ccc2sc(-c3ccncc3)nc2c1,IC50,Protein skinhead-1,54.5 µM (inactive)
same,CC50,[6],25.5 µM (active)
COc1ccc(C2C(C(C)=O)=C(C)N=c3s/c(=C\c4cc(C)n(C)c4C)c(=O)n32)c(OC)c1 (stereo not drawn),IC50,Protein skinhead-1,> 100 µM (inactive)
CC(C)NC(=O)C1(C)CSCC(=O)N1CCCN1CCOCC1 (stereo not drawn),IC50,Protein skinhead-1,> 100 µM (inactive)
COC(=O)c1ccc(S(=O)(=O)N2CCCCCC2)cc1,IC50,Protein skinhead-1,> 100 µM (inactive)
COc1cc(N)c(Cl)cc1C(=O)N[C@H]1CCN(CCCOc2ccc(F)cc2)C[C@@H]1OC,AC50,Cytochrome P450 1A2,25.1 µM (inconclusive)
same,AC50,Cytochrome P450 2C9,1 µM (active)
same,AC50,Cytochrome P450 2C19,0.794 µM (active)
